Experimental data reported in patent US20230279020A9, “CARM1 INHIBITORS AND USES THEREOF” (Epizyme, Inc., priority 2013, published 2023).

target: Human CARM1 (PRMT4) (Homo sapiens (Human), UniProt Q86X55); test: CARM1 enzyme assay on peptide substrate (3H-SAM Flashplate); conditions: Biochemical potencies, classification codes; read-out: Biochem IC50
From the text: S-adenosylmethionine (SAM), S-adenosylhomocysteine (SAH), bicine, Tween20, dimethylsulfoxide (DMSO), bovine skin gelatin (BSG), sodium butyrate and Tris(2-carboxyethyl)phosphine hydrochloride solution (TCEP) were purchased from Sigma-Aldrich at the highest level of purity possible. ^3H-SAM was purchase from American Radiolabeled Chemicals with a specific activity of 80 Ci/mmol. 384-well streptavidin Flashplates were purchased from PerkinElmer.
Peptide representative of human histone H3 residues 16-30 was synthesized with an N-terminal linker-affinity tag motif and a C-terminal amide cap by 21st Century Biochemicals. […] The sequence was Biot-Ahx-[…]-amide and contained a monomethylated arginine at position 26 (SEQ ID NO.:1).
The gene sequence encoding isoform1 containing a deletion of amino acids 539-561 was amplified subsequently and subcloned into pFastBacMam (Viva Biotech).
Recombinant baculovirus were generated according to Bac-to-Bac kit instructions (Life Technologies). Protein over-expression was accomplished by infecting exponentially growing HEK 293F cell culture at 1.3×10^6cell/ml with virus (MOI=10) in the presence of 8 mM sodium butyrate. Infections were carried out at 37° C. for 48 hours, harvested by centrifugation, and stored at −80° C. for purification.
Expressed full-length human Flag- and His-tagged CARM1 protein was purified from cell paste by anti-flag M2 affinity chromatography with resin equilibrated with buffer containing 20 mM Tris, 150 mM NaCl, 5% glycerol, pH 7.8. Column was washed with 500 mM NaCl in buffer A and Flag-CARM1-His was eluted with 200 ug/ml FLAG peptide in buffer A. Pooled fractions were dialyzed in 20 mM Tris, 150 mM NaCl, 5% glycerol and 1 mM DTT, pH 7.8.
The assays were all performed in a buffer consisting of 20 mM Bicine (pH=7.6), 1 mM TCEP, 0.005% BSG, and 0.002% Tween 20, prepared on the day of use. Compounds in 100% DMSO (1 ul) were spotted into a polypropylene 384-well V-bottom plates (Greiner) using a Platemate Plus outfitted with a 384-channel head (Thermo Scientific). DMSO (1 ul) was added to Columns 11, 12, 23, 24, rows A-H for the maximum signal control and 1 ul of SAH, a known product and inhibitor of CARM1, was added to columns 11, 12, 23, 24, rows I-P for the minimum signal control. A cocktail (40 ul) containing the CARM1 enzyme was added by Multidrop Combi (Thermo-Fisher). The compounds were allowed to incubate with CARM1 for 30 min at room temperature, then a cocktail (10 ul) containing ^3H-SAM and peptide was added to initiate the reaction (final volume=51 ul). The final concentrations of the components were as follows: CARM1 was 0.25 nM, ^3H-SAM was 30 nM, peptide was 250 nM, SAH in the minimum signal control wells was 1 mM, and the DMSO concentration was 2%. The assays were stopped by the addition of non-radiolabeled SAM (10 ul) to a final concentration of 300 uM, which dilutes the ^3H-SAM to a level where its incorporation into the peptide substrate is no longer detectable. 50 ul of the reaction in the 384-well polypropylene plate was then transferred to a 384-well Flashplate and the biotinylated peptides were allowed to bind to the streptavidin surface for at least 1 hour before being washed once with 0.1% Tween20 in a Biotek ELx405 plate washer. The plates were then read in a PerkinElmer TopCount plate reader to measure the quantity of ^3H-labeled peptide bound to the Flashplate surface, measured as disintegrations per minute (dpm) or alternatively, referred to as counts per minute (cpm).
where dpm=disintegrations per minute, cmpd=signal in assay well, and min and max are the respective minimum and maximum signal controls.
where top and bottom are the normally allowed to float, but may be fixed at 100 or 0 respectively in a 3-parameter fit. The Hill Coefficient normally allowed to float but may also be fixed at 1 in a 3-parameter fit. Y is the % inhibition and X is the compound concentration.

Human CARM1 (PRMT4), sequence (Q86X55 other isoform, or with tags, fused parts or gaps isoform Q86X55-1): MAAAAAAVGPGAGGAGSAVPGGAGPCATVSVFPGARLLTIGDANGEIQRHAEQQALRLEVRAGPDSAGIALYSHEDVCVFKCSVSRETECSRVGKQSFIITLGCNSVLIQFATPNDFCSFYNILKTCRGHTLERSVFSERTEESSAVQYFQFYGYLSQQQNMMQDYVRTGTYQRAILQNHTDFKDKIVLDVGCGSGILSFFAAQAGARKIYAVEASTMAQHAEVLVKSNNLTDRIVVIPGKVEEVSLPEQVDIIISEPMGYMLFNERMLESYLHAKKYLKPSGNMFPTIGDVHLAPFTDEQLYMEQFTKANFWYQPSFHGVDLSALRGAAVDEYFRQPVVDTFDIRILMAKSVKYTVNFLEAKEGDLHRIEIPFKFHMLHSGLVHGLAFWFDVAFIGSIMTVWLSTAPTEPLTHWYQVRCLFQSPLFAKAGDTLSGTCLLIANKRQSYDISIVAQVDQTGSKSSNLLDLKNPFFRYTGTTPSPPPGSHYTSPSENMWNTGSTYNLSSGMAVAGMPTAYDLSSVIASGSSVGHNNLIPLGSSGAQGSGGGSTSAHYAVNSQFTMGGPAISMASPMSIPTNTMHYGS

Row | Compound | IC50 [nM]
1 | CNCC(O)COc1cccc(-c2nc(N[C@H]3C[C@@](C)(OC)C3)c(C)c(-c3c(C)noc3C)n2)c1 (stereo partly shown) [Example 19-3] | < 100
2 | CNCC(O)COc1cccc(-c2nc(NCCOC)cc(-c3c(C)noc3C)n2)c1 (stereo not shown) [Example 20-1] | < 100
3 | CCN1CCN(c2cc(-c3c(C)noc3C)nc(-c3cccc(OCC(O)CNC)c3)n2)CC1 (stereo not shown) [Example 20-1a] | < 100
4 | CNCC(O)COc1cccc(-c2nc(-c3c(C)noc3C)c(C)c(N(C)[C@H]3C[C@@](C)(OC)C3)n2)c1 (stereo partly shown) [Example 20-3] | < 100
5 | CNCC(O)COc1cccc(-c2nc(Nc3cncnc3)cc(-c3c(C)noc3C)n2)c1 (stereo not shown) [Example 21-1a] | < 100
6 | CNCC(O)COc1cc(Cl)cc(-c2nc(NC3CCN(CC(F)F)CC3)c(C)c(-c3c(C)noc3C)n2)c1 (stereo not shown) [Example 21-3] | < 100
7 | CNCC(O)COc1cccc(-c2nc(NC(C)C)cc(N(C)C3CCOCC3)n2)c1 (stereo not shown) [Example 22-1] | < 100
8 | CNCC(O)COc1cc(Cl)cc(-c2nc(NC3CCN(C4CC4)CC3)c(C)c(-c3c(C)noc3C)n2)c1 (stereo not shown) [Example 22-3] | < 100
9 | CNCC(O)COc1cccc(-c2nc(-c3cccc(C#N)c3)cc(N(C)CCC#N)n2)c1 (stereo not shown) [Example 24-1] | < 100
10 | CCOC(=O)N1CCOC[C@H]1CNc1nc(-c2cc(OC[C@@H](O)CNC)ccc2Cl)nc(-c2c(C)noc2C)c1C [Example 24-3] | < 100
11 | CNCC(O)COc1cc(OC)cc(-c2nc(C3CC3)cc(N(C)C3CCOCC3)n2)c1 (stereo not shown) [Example 25-1] | < 100
12 | CCOC(=O)N1CCOC[C@H]1CNc1nc(-c2cc(OC[C@H](O)CNC)ccc2Cl)nc(-c2c(C)noc2C)c1C [Example 25-3] | < 100
13 | CNCC(O)COc1cccc(-c2nc(N[C@H]3CCOC3)c(C)c(N3CCOCC3)n2)c1 (stereo partly shown) [Example 26-1] | < 100
14 | CNC[C@H](O)COc1ccc(F)c(-c2nc(NC3CCN(C(=O)OC)CC3)c(C)c(-c3c(C)noc3C)n2)c1 [Example 26-3] | < 100
15 | CNCC(O)COc1cccc(-c2nc(NC)cc(-c3c(C)noc3C)n2)c1 (stereo not shown) [Example 27-1a] | < 100
16 | CCOC(=O)N1CCCCC1CNc1nc(-c2cc(OC[C@@H](O)CNC)ccc2Cl)nc(-c2c(C)noc2C)c1C (stereo partly shown) [Example 27-3] | < 100
17 | CCOC(=O)N1CCN(c2cc(-c3c(C)noc3C)nc(-c3cccc(OCC(O)CNC)c3)n2)CC1 (stereo not shown) [Example 28-1a] | < 100
18 | CCOC(=O)N1CCCCC1CNc1nc(-c2cc(OC[C@H](O)CNC)ccc2Cl)nc(-c2c(C)noc2C)c1C (stereo partly shown) [Example 28-3] | < 100
19 | CNCC(O)COc1cccc(-c2nc(NCCOC)cc(-c3cc4ccccc4o3)n2)c1 (stereo not shown) [Example 29-1] | < 100
20 | CNCC(O)COc1cccc(-c2nc(-c3c(C)noc3C)cc(N3CCNC(C(=O)O)C3)n2)c1 (stereo not shown) [Example 29-1a] | < 100
21 | CNCC(O)COc1ccc(Cl)c(-c2nc(NC3CCOCC3)c(C)c(-c3c(C)noc3C)n2)c1 (stereo not shown) [Example 29-3] | < 100
22 | CNCC(O)COc1cccc(-c2nc(-c3c(C)noc3C)cc(N3CCN(C4CC4)CC3)n2)c1 (stereo not shown) [Example 30-1a] | < 100
23 | CNCC(O)COc1ccc(Cl)c(-c2nc(NCC3CCOC3)c(C)c(-c3c(C)noc3C)n2)c1 (stereo not shown) [Example 30-3] | < 100
24 | CNCC(O)COc1cccc(-c2nc(NC3CCOC3)cc(-c3c(C)noc3C)n2)c1 (stereo not shown) [Example 31-1a] | < 100
25 | CNCC(O)COc1ccc(Cl)c(-c2nc(NCC3CCCCO3)c(C)c(-c3c(C)noc3C)n2)c1 (stereo not shown) [Example 31-3] | < 100
26 | CNCC(O)COc1cccc(-c2nc(-c3cccnc3)cc(N(C)C3CCOCC3)n2)c1 (stereo not shown) [Example 32-1] | < 100

Row | Compound | IC50 [nM]
27 | CNCC(O)COc1cccc(-c2nc(N[C@H]3CC[C@H](O)CC3)cc(-c3c(C)noc3C)n2)c1 (stereo partly shown) [Example 32-1a] | < 100
28 | CNC[C@@H](O)COc1cccc(-c2nc(NC3CCN(C(=O)OC)C(C)C3)c(C)c(-c3c(C)noc3C)n2)c1 (stereo partly shown) [Example 32-3] | < 100
29 | CNCC(O)COc1cccc(-c2nc(NC3CCOCC3)cc(-c3c(C)noc3C)n2)c1 (stereo not shown) [Example 33-1] | < 100
30 | CNCC(O)COc1cccc(-c2nc(N[C@H]3CC[C@@H](O)CC3)cc(-c3c(C)noc3C)n2)c1 (stereo partly shown) [Example 33-1a] | < 100
31 | CNC[C@H](O)COc1cccc(-c2nc(NC3CCN(C(=O)OC)C(C)C3)c(C)c(-c3c(C)noc3C)n2)c1 (stereo partly shown) [Example 33-3] | < 100
32 | CNCC(O)COc1cccc(-c2nc(NCCOC)cc(-c3cnn(CC(C)C)c3)n2)c1 (stereo not shown) [Example 34-1] | < 100
33 | CNCC(O)COc1cccc(-c2nc(-c3c(C)noc3C)c(C)c(N(C)C3CCOCC3)n2)c1 (stereo not shown) [Example 34-1a] | < 100
34 | CNCC(O)COc1cccc(-c2nc(-c3c(C)noc3C)c(C)c(N3CCn4ccnc4C3)n2)c1 (stereo not shown) [Example 34-3] | < 100
35 | CNCC(O)COc1cccc(-c2nc(-c3c(C)noc3C)cc(N3CCNC(C)C3)n2)c1 (stereo not shown) [Example 35-1a] | < 100
36 | CNCC(O)COc1cccc(-c2nc(-c3c(C)noc3C)c(C)c(N3Cc4cccnc4C3)n2)c1 (stereo not shown) [Example 35-3] | < 100
37 | CNCC(O)COc1cccc(-c2nc(N3CCOCC3)cc(N(C)C3CCOCC3)n2)c1 (stereo not shown) [Example 36-1] | < 100
38 | CNCC(O)COc1cccc(-c2nc(-c3c(C)noc3C)cc(N3CCNC(C)(C)C3)n2)c1 (stereo not shown) [Example 36-1a] | < 100
39 | CNCC(O)COc1ccc(Cl)c(-c2nc(O[C@H]3CCN(C(=O)OC)[C@@H](C)C3)c(C)c(-c3c(C)noc3C)n2)c1 (stereo partly shown) [Example 36-3] | < 100
40 | CNCC(O)COc1cccc(-c2nc(N3CCOCC3)c(C)c(N(C)[C@H]3CCOC3)n2)c1 (stereo partly shown) [Example 37-1] | < 100
41 | CNCC(O)COc1ccc(Cl)c(-c2nc(NC3CC4(CCN(C(=O)OC)CC4)C3)c(C)c(-c3c(C)noc3C)n2)c1 (stereo not shown) [Example 37-3] | < 100
42 | CNCC(O)COc1cccc(-c2nc(-c3c(C)noc3C)cc(N3CCN(C(C)=O)[C@@H](C)C3)n2)c1 (stereo partly shown) [Example 38-1a] | < 100
43 | CNCC(O)COc1ccc(Cl)c(-c2nc(NC3CC(O)(C(F)(F)F)C3)c(C)c(-c3c(C)noc3C)n2)c1 (stereo not shown) [Example 38-3] | < 100
44 | CNCC(O)COc1cccc(-c2nc(-c3c(C)noc3C)cc(N3CCN(C(C)=O)C[C@H]3C)n2)c1 (stereo partly shown) [Example 39-1a] | < 100
45 | CNCC(O)COc1ccc(Cl)c(-c2nc(N[C@H]3CCC[C@@H](O)C3)c(C)c(-c3c(C)noc3C)n2)c1 (stereo partly shown) [Example 39-3] | < 100
46 | CNCC(O)COc1cccc(-c2nc(-c3c(C)noc3C)cc(N3CCN[C@@H](C)C3)n2)c1 (stereo partly shown) [Example 40-1a] | < 100
47 | CNC[C@@H](O)COc1ccc(F)c(-c2nc(NC3CCN(C(=O)OC)CC3)c(C)c(-c3c(C)noc3C)n2)c1 [Example 40-3] | < 100
48 | CNCC(O)COc1cccc(-c2nc(-c3cnn(CC(C)C)c3)cc(N(C)CCC#N)n2)c1 (stereo not shown) [Example 41-1] | < 100
49 | CNCC(O)COc1cccc(-c2nc(N[C@H]3C[C@@H](O)C3)cc(-c3c(C)noc3C)n2)c1 (stereo partly shown) [Example 41-1a] | < 100
50 | CNCC(O)COc1ccc(Cl)c(-c2nc(NCC3COCCO3)c(C)c(-c3c(C)noc3C)n2)c1 (stereo not shown) [Example 41-3] | < 100
51 | CNCC(O)COc1cccc(-c2nc(NCCCN3CCCC3=O)cc(C3=CCCC3)n2)c1 (stereo not shown) [Example 42-1] | < 100
52 | CNCC(O)COc1cccc(-c2nc(-c3c(C)noc3C)cc(N3CCC4(CC3)NC(=O)NC4=O)n2)c1 (stereo not shown) [Example 42-1a] | < 100
